In patent US20040024543A1, “Methods and systems for analyzing complex biological systems” (priority 2001, published 2004):
Entries after “also recorded” stand apart in the source; their conditions may differ.

Experiments:
Arabidopsis thaliana [1] = experiment: SOA1 phenotypic analysis of herbicide-treated Arabidopsis (MIC, Tmic, leaf traits); format: in vivo; conditions: for tMic (Dev.): coded score of time to full range of symptoms at MIC; for leafCurling (Dev.) / leafTwisting (Dev.) / leafWidth (Dev.) / matureLeafAnthocyanins (Dev.) / matureLeafChlorosis (Dev.) / matureLeafNecrosis (Dev.) / newLeafAnthocyanins (Dev.) / newLeafChlorosis (Dev.) / newLeafNecrosis (Dev.) / pointedLeaves (Dev.): numeric value standardized to mock treated; for characteristic morphological symptoms: SOA1, in words
Arabidopsis thaliana [2] = experiment: MOA1 phenotypic profiling of sprayed Arabidopsis (symptom scores, cluster analysis); format: in vivo; conditions: MOA1, in words
Arabidopsis thaliana [3] = experiment: MOA1 gene expression profiling (22,000 gene arrays) of sprayed Arabidopsis; conditions: for number of gene expression perturbations compared to the other treatments: 1 hr; for No. of Lethal Genes Altered: regulated genes at 1 hr compared with internal list of essential genes
Arabidopsis thaliana [4] = experiment: MOA1 biochemical (metabolite) profiling by LC-MS and GC-MS of sprayed Arabidopsis; conditions: for stress-related (commonly regulated) metabolites: MOA1, 20 min and 1 hour after spraying
[5] = system: Saccharomyces cerevisiae wild type strain BY4743; experiment: AF1 yeast metabolite analysis by GC-MS and LC-MS after antifungal drug treatment; format: cell-based; also: test concentration or dose not given here
Arabidopsis = conditions: nitrate addition to N-starved plants; cited from earlier work
[6] = MOA1, early time points / after one hour

SMILES: O=C(O)COc1ccc(Cl)cc1Cl [2,4-D]
- tMic (Dev.) (Arabidopsis thaliana [1]; SOA1): 2
- leafCurling (Dev.) (Arabidopsis thaliana [1]; SOA1): 1
- leafTwisting (Dev.) (Arabidopsis thaliana [1]; SOA1): 2
- leafWidth (Dev.) (Arabidopsis thaliana [1]; SOA1): −1
- matureLeafAnthocyanins (Dev.) (Arabidopsis thaliana [1]; SOA1): 1
- matureLeafChlorosis (Dev.) (Arabidopsis thaliana [1]; SOA1): 2
- matureLeafNecrosis (Dev.) (Arabidopsis thaliana [1]; SOA1): 0
- newLeafAnthocyanins (Dev.) (Arabidopsis thaliana [1]; SOA1): 0
- newLeafChlorosis (Dev.) (Arabidopsis thaliana [1]; SOA1): 1
- newLeafNecrosis (Dev.) (Arabidopsis thaliana [1]; SOA1): 0
- pointedLeaves (Dev.) (Arabidopsis thaliana [1]; SOA1): 0
- Symtom Class (Arabidopsis thaliana [1]; SOA1, three-week-old plants sprayed with herbicide, classes pictured in FIG. 12): 5

SMILES: O=C(O)c1cc(Oc2ccc(C(F)(F)F)cc2Cl)ccc1[N+](=O)[O-] [Acifluorfen]
- characteristic morphological symptoms (Arabidopsis thaliana [1]): Necrotic leaf flecks

SMILES: Nc1nc[nH]n1 [Amitrole]
- characteristic morphological symptoms (Arabidopsis thaliana [1]): leaf bleaching and leaf enlargement
- observed phenotype (Arabidopsis thaliana [2]): chlorosis and not true bleaching

SMILES: COC(=O)NS(=O)(=O)c1ccc(N)cc1 [Asulam]
- number of gene expression perturbations compared to the other treatments (Arabidopsis thaliana [3]): fewest gene expression perturbations
- No. of Lethal Genes Altered (Arabidopsis thaliana [3]): 5

SMILES: CCNc1nc(Cl)nc(NC(C)C)n1 [Atrazine]
- characteristic morphological symptoms (Arabidopsis thaliana [1]): rapid and widespread leaf necrosis

SMILES: CC(C)N1C(=O)c2ccccc2NS1(=O)=O [Bentazon]
- characteristic morphological symptoms (Arabidopsis thaliana [1]): rapid and widespread leaf necrosis

SMILES: COC(=O)c1cc(Oc2ccc(Cl)cc2Cl)ccc1[N+](=O)[O-] [Bifenox]
- characteristic morphological symptoms (Arabidopsis thaliana [1]): Necrotic leaf flecks

SMILES: CCSC(=O)N(CC(C)C)CC(C)C [Butylate]
- stress-related (commonly regulated) metabolites (Arabidopsis thaliana [4]): neither butylate nor chlorpropham treatment resulted in many changes in these commonly regulated metabolites
- observed phenotype (Arabidopsis thaliana [2]): neither showed a strong herbicidal phenotype

SMILES: COc1nc(C)nc(NC(=O)NS(=O)(=O)c2ccccc2Cl)n1 [Chlorsulfuron]
- characteristic morphological symptoms (Arabidopsis thaliana [1]): anthocyanin accumulation in the older leaves accompanied by chlorosis of the newly emerging leaves
- No. of Lethal Genes Altered (Arabidopsis thaliana [3]): 8

SMILES: c1cc[n+]2c(c1)-c1cccc[n+]1CC2 [Diquat]
- characteristic morphological symptoms (Arabidopsis thaliana [1]): rapid and widespread leaf necrosis
- tMic (Dev.) (Arabidopsis thaliana [1]; SOA1): 2

SMILES: CN(C)C(=O)Nc1ccc(Cl)c(Cl)c1 [Diuron]
- characteristic morphological symptoms (Arabidopsis thaliana [1]): rapid and widespread leaf necrosis
- tMic (Dev.) (Arabidopsis thaliana [1]; SOA1): 1

SMILES: OC(Cn1cncn1)(Cn1cncn1)c1ccc(F)cc1F [Fiuconazole]
- Fold Change ([5]; 5hydroxyLtryptophan, pLC): 0
- Fold Change ([5]; adenosine, pLC): 0

SMILES: OC(Cn1cncn1)(Cn1cncn1)c1ccc(F)cc1F [Fluconazole]
- Fold Change ([5]; 4-aminobenzoic acid, pLC): 0
- Fold Change ([5]; 4-methylcatechol, nLC): 0
- Fold Change ([5]; 4-methylcatechol, pLC): 0
- Fold Change ([5]; 5hydroxyLtryptophan, nLC): 0
- Fold Change ([5]; 6-benzylaminopurine, nLC): 0
- Fold Change ([5]; 6benzylaminopurine, pLC): 0
- Fold Change ([5]; DL-aminoadipic acid, pLC): 0.1155
- Fold Change ([5]; DLaminoadipic acid, nLC): 0.443
- Fold Change ([5]; abscisic acid, nLC): 0
- Fold Change ([5]; abscisic acid, pLC): 0
- Fold Change ([5]; adenine, nLC): 0
- Fold Change ([5]; adenosine, nLC): 0
- Fold Change ([5]; allantoic acid, pLC): 0
- Fold Change ([5]; anthranilic acid, nLC): 0
- Fold Change ([5]; anthranilic acid, pLC): 0
- Fold Change ([5]; arginine, nLC): 0.6484
- Fold Change ([5]; arginine, pLC): 0.1179
- Fold Change ([5]; argininosuccinate, nLC): 0
- Fold Change ([5]; argininosuccinate, pLC): 0
- Fold Change ([5]; asparagine, GC): 0.3999
- Fold Change ([5]; asparagine, nLC): 0.3545
- Fold Change ([5]; asparagine, pLC): 0.3192
- Fold Change ([5]; aspartic acid, GC): 0.4337
- Fold Change ([5]; aspartic acid, pLC): 0.214
- Fold Change ([5]; aspartic, nLC): 0.4993
- Fold Change ([5]; benzoic acid, nLC): 0
- Fold Change ([5]; biotin, nLC): 0.3455
- Fold Change ([5]; biotin, pLC): 0
- Fold Change ([5]; caffeic acid, nLC): −0.4711
- Fold Change ([5]; caffeine, pLC): 0
- Fold Change ([5]; campesterol, GC): 0
- Fold Change ([5]; catechol, nLC): 0
- Fold Change ([5]; cinnamic acid, nLC): 0
- Fold Change ([5]; citric acid TME, pLC): 0
- Fold Change ([5]; citricanoic/itaconi, nLC): 0
- Fold Change ([5]; citrulline, nLC): 0
- Fold Change ([5]; citrulline, pLC): 0.08252
- Fold Change ([5]; coumaric acid, nLC): 0
- Fold Change ([5]; cytidine, nLC): −0.7969
- Fold Change ([5]; cytidine, pLC): 0
- Fold Change ([5]; cytosine, nLC): 0
- Fold Change ([5]; cytosine, pLC): 0
- Fold Change ([5]; decanoic acid, nLC): 0.1846
- Fold Change ([5]; desmosterol, GC): 0
- Fold Change ([5]; diaminopimelic acid, nLC): 0
- Fold Change ([5]; diaminopimelic acid, pLC): 0
- Fold Change ([5]; dihydrofolic acid, nLC): 0
- Fold Change ([5]; dihydrofolic acid, pLC): 0
- Fold Change ([5]; dipicolinic acid, pLC): 0
- Fold Change ([5]; disaccaride1, GC): 0.3883
- Fold Change ([5]; disaccaride2, GC): 0.1517
- Fold Change ([5]; disaccaride3, GC): 0.5803
- Fold Change ([5]; ergosterol, GC): 0.948
- Fold Change ([5]; estrone, nLC): 0
- Fold Change ([5]; farnesol, nLC): 0
- Fold Change ([5]; folic acid, nLC): 0
- Fold Change ([5]; folic acid, pLC): 0
- Fold Change ([5]; fucosterol, GC): 6.665
- Fold Change ([5]; fumaric/3m2oxobutan, nLC): 0.6009
- Fold Change ([5]; gallic acid, nLC): 0.5071
- Fold Change ([5]; gibberellic, nLC): 0
- Fold Change ([5]; glucosamine6PO4, nLC): −0.9951
- Fold Change ([5]; glucosamine6PO4, pLC): 0
- Fold Change ([5]; glucosamine, pLC): 0
- Fold Change ([5]; glutamate, pLC): −0.06179
- Fold Change ([5]; glutamic/acetylseri, nLC): 0.3842
- Fold Change ([5]; glutamine, GC): 0.5242
- Fold Change ([5]; glutamine/lysine, nLC): 0.3309
- Fold Change ([5]; glutamine/lysine, pLC): 0.2242
- Fold Change ([5]; glutathione, pLC): −0.05832
- Fold Change ([5]; glycanopyrose, GC): 1.202
- Fold Change ([5]; glycerol, GC): 0.2187
- Fold Change ([5]; glycine, GC): −0.1037
- Fold Change ([5]; guanine, nLC): 0
- Fold Change ([5]; guanosine, nLC): −0.993
- Fold Change ([5]; guanosine, pLC): −0.9981
- Fold Change ([5]; hexadecanoic acid, GC): 0.1343
- Fold Change ([5]; histidine, nLC): 0
- Fold Change ([5]; histidine, pLC): 0
- Fold Change ([5]; homogentisic/uric, nLC): 0
- Fold Change ([5]; hydrocortisone, nLC): 0
- Fold Change ([5]; hydrocortisone, pLC): 0
- Fold Change ([5]; hypoxanthine, nLC): 0.7757
- Fold Change ([5]; hypoxanthine, pLC): 0.1298
- Fold Change ([5]; indole3pyruvic acid, nLC): 0
- Fold Change ([5]; inostol/glucos/sorb, nLC): −0.4744
- Fold Change ([5]; iso citric acid, GC): 0.3923
- Fold Change ([5]; isocitric/citric/qu, nLC): 1.457
- Fold Change ([5]; isoleucine, GC): 0.391
- Fold Change ([5]; itaconic acid dimes, pLC): 0
- Fold Change ([5]; jasmonic acid, nLC): 0
- Fold Change ([5]; kinetin, nLC): 0
- Fold Change ([5]; kinetin, pLC): 0
- Fold Change ([5]; lactic acid, nLC): −0.0439
- Fold Change ([5]; lanosterol, GC): 8.462
- Fold Change ([5]; lauric acid, nLC): 0.3906
- Fold Change ([5]; leucine, GC): 0.3387

SMILES: CC(C)C1(C)N=C(c2ncccc2C(=O)O)NC1=O (stereo not drawn) [Imazapyr]
- characteristic morphological symptoms (Arabidopsis thaliana [1]): anthocyanin accumulation in the older leaves accompanied by chlorosis of the newly emerging leaves
- stress-related (commonly regulated) metabolites (Arabidopsis thaliana [4]): Only a few, if any

SMILES: CCc1cnc(C2=NC(C)(C(C)C)C(=O)N2)c(C(=O)O)c1 (stereo not drawn) [Imazethapyr]
- characteristic morphological symptoms (Arabidopsis thaliana [1]): anthocyanin accumulation in the older leaves accompanied by chlorosis of the newly emerging leaves

SMILES: CS(=O)(=O)c1cc(C(F)(F)F)ccc1C(=O)c1cnoc1C1CC1 [Isoxaflutole]
- No. of Lethal Genes Altered (Arabidopsis thaliana [3]): 15
- Alpha-tocopherol levels relative to the control (Arabidopsis thaliana [4]; MOA1, early time points): not significantly changed
- phenylalanine level relative to the control (Arabidopsis thaliana [4]; [6]): up-regulated; also recorded: began to accumulate
- tyrosine level relative to the control (Arabidopsis thaliana [4]; [6]): up-regulated; also recorded: began to accumulate

SMILES: CSc1nnc(C(C)(C)C)c(=O)n1N [Metribuzin]
- characteristic morphological symptoms (Arabidopsis thaliana [1]): rapid and widespread leaf necrosis

SMILES: O=C(O)c1ccccc1C(=O)Nc1cccc2ccccc12 [Naptalam]
- number of gene expression perturbations compared to the other treatments (Arabidopsis thaliana [3]): fewest gene expression perturbations
- No. of Lethal Genes Altered (Arabidopsis thaliana [3]): 3

SMILES: O=[N+]([O-])O [Nitrate, nitrate]
- Nitrate Regulation of Glutamate synthetase (Arabidopsis): ↑
- Nitrate Regulation of Glutamine synthetase (2) (Arabidopsis): ↑
- Nitrate Regulation of MADs Box (2) (Arabidopsis): ↓
- Nitrate Regulation of MYB transcription factor (Arabidopsis): ↑
- Nitrate Regulation of Malate Dehydrogenase (Arabidopsis): ↑
- Nitrate Regulation of Nitrate transporter (Arabidopsis): ↑
- Nitrate Regulation of Phosphate transporter (Arabidopsis): ↑
- Nitrate Regulation of Transaldolase (Arabidopsis): ↑
- Nitrate Regulation of Transketolase (Arabidopsis): ↑

SMILES: CNc1cnn(-c2cccc(C(F)(F)F)c2)c(=O)c1Cl [Norflurazon]
- stress-related (commonly regulated) metabolites (Arabidopsis thaliana [4]): Only a few, if any

SMILES: C[n+]1ccc(-c2cc[n+](C)cc2)cc1 [Paraquat]
- characteristic morphological symptoms (Arabidopsis thaliana [1]): rapid and widespread leaf necrosis
- tMic (Dev.) (Arabidopsis thaliana [1]; SOA1): 2
- leafCurling (Dev.) (Arabidopsis thaliana [1]; SOA1): 2
- leafTwisting (Dev.) (Arabidopsis thaliana [1]; SOA1): 0
- leafWidth (Dev.) (Arabidopsis thaliana [1]; SOA1): −1
- matureLeafAnthocyanins (Dev.) (Arabidopsis thaliana [1]; SOA1): 0
- matureLeafChlorosis (Dev.) (Arabidopsis thaliana [1]; SOA1): 1
- matureLeafNecrosis (Dev.) (Arabidopsis thaliana [1]; SOA1): 4
- newLeafAnthocyanins (Dev.) (Arabidopsis thaliana [1]; SOA1): 0
- newLeafChlorosis (Dev.) (Arabidopsis thaliana [1]; SOA1): 1
- newLeafNecrosis (Dev.) (Arabidopsis thaliana [1]; SOA1): 4
- pointedLeaves (Dev.) (Arabidopsis thaliana [1]; SOA1): 1
